We go through 16 molecules from patent US12274679B2, “Substituted alkylphenols as HCN1 antagonists” (Cornell University, priority 2018, dated 2025).

Entries after “also recorded” stand apart in the source; their conditions may differ.

For one data set, the target named is T1, HCN1 channels (Mus musculus, UniProt O88704).
T1 sequence (O88704 74-390 limits assumed): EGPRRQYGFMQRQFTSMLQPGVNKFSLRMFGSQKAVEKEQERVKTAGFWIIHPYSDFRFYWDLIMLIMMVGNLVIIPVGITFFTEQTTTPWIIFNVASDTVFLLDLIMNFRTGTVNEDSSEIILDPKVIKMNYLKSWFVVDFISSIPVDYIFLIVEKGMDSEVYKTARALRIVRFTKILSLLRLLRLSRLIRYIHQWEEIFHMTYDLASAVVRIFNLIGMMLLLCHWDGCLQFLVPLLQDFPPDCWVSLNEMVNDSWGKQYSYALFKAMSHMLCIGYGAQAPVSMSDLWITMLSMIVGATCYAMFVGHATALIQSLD
Nature of the data set: Two electrode voltage clamp of HCN1 channels expressed in Xenopus oocytes (shift in V1/2). In kind it is cell-based. The following applies: for potency as HCN1 inverse agonist compared with propofol: relative to propofol (2,6-di-iso-propylphenol); for offset of the 2,6-DTBP Hill fit of the V1/2 shift: right shift of the concentration-response relative to 2,6-DTBP, HCN1; for efficacy apparent in the concentration response (Hill fit): ΔV1/2 of HCN1, 2,6 di-alkylbenzene analogues; for inhibition of HCN1 channel gating: 20 min pre-incubation, 20 mM HPβCD + DMSO, compared with free 2,6-DTBP.

Another data set deals with HCN1 vs. HCN2-4. Nature of the data set: Effect on V1/2 of HCN1-4 channels (isoform selectivity). In kind it is cell-based.
Data set [1] has as its system chronic constriction injury model of peripheral neuropathic pain. The following applies: bolus administration; cited from earlier work.
Data set [2] concerns normal nociception, locomotor activity, motor coordination, muscle strength. The following applies: anti-hyperalgesic dose, cited from earlier work.
In data set [3] the test system is mechanical and thermal hyperalgesia after nerve ligation. Description: Nerve ligation model: paw withdrawal probability and hindpaw withdrawal latency after cumulative i.p. dosing.
The nature of data set [4]: Solubilisation in DMSO and dispersion into aqueous buffer. In kind it is physicochemical.
Data set [5] is described as follows: Whole blood concentration after oral gavage, LC-MS/MS. In kind it is in vivo. The following applies: rats, oral gavage in peanut oil, 0.58 mmole/kg, over 30 hours. How it is done:
FIG. 29 is a graph showing the concentration of BP4L-18:1:1 in whole blood after administration to rats. Eight adult rats were gavaged with either 0.5 mL of peanut oil (n=4) or 0.5 mL of peanut oil containing 0.58 mmole/kg BP4L-18:1:1 (n=4). Blood samples were obtained at the indicated times. Following extraction using equi-volumes of acetonitrile, precipitation and filtration, blood concentrations of BP4L-18:1:1 were determined using LC-MS/MS. Dotted black lines indicate the concentrations of BP4L-18:1:1 for individual animals that received drug, the solid black line indicates the mean±SEM for the plus-drug cohort. Dotted and solid grey lines are, respectively, the concentrations of BP4L-18:1:1 detected in individual peanut oil-alone animals and the mean±SEM thereof. Grey lines superimpose and are indistinguishable from the time axis.
LCMS/MS was performed on an Agilent 1290 Infinity II UPLC system and Agilent 6495 Triple Quadrupole mass spectrometer. […] Quantitation was performed using multiple reaction monitoring in positive electrospray ionization mode using the transition 517.4→233.1 and a collision energy of 42. […]
Pharmacokinetic properties of exemplary compound BP4L-18:1:1 (compound 6) were evaluated in rats (FIG. 29). In particular, concentration of BP4L-18:1:1 in whole blood samples were determined over the course of 30 hours after oral administration.

Data set [6] deals with animal models of neuropathic pain. The following applies: in vivo; cited from earlier work.
Setting [7] is: simultaneous fit, absence and presence of 3 μM 2,6-DTBP.

On to `CCC(C)c1ccc(O)c(C(C)CC)c1` (stereo not drawn) [2,4-DSBP, 2,4-di-sec-butylphenol], for which, on HCN1 channels, the “potency as HCN1 inverse agonist compared with propofol” value (from here on “potency … compared with propofol”) was “less potent” and the “offset of the 2,6-DTBP Hill fit of the V1/2 shift” value (from here on “offset … of the V1/2 shift”) is reported as 23 fold.
`CC(C)(C)c1ccc(O)c(C(C)(C)C)c1` [2,4-DTBP, 2,4-di-tert-butylphenol]: on HCN1 channels, the “potency … compared with propofol” value was “more potent” and the “offset … of the V1/2 shift” value came out at 2 fold.
Turning to `CCc1cccc(CC)c1O` [2,6-DEP], the “efficacy apparent in the concentration response (Hill fit)” value (“efficacy apparent” for short) on HCN1 channels is “partial”.
As for `CC(C)C1CCCC(C(C)C)C1O` (stereo not drawn) [2,6-DIPCH], the “efficacy apparent” value on HCN1 channels is on record as “partial”.
For the molecule `CC(C)c1cccc(C(C)C)c1O` [2,6-DIPP, 2,6-di-iso-propylphenol], the “efficacy apparent” value on HCN1 channels is given as “full”.
In the case of `CCC(C)c1cccc(C(C)CC)c1O` (stereo not drawn) [2,6-DSBP, 2,6-di-sec-butylphenol], on HCN1 channels, the concentration for a half-maximal effect (EC50) was 370 µM, the “potency … compared with propofol” value is listed as “less potent”, the “offset … of the V1/2 shift” value is 15 fold and the “efficacy apparent” value is “partial”. Besides, at HCN1 channels (setting [7]), the “JcI (association constant, common site model N=4)” value is reported as 3,696±2,948 and the “JoI (association constant, common site model N=4)” value was 881±1,801. In addition, the “inverse agonist potency and efficacy” value at HCN1 channels (ΔV1/2 in absence and presence of 3 μM 2,6-DTBP) is listed as “low potency, high efficacy, inverse agonist”.
On to `CC(C)(C)C1CCCC(C(C)(C)C)C1O` (stereo not drawn) [2,6-DTBCH], for which the “efficacy apparent” value on HCN1 channels was “partial”.
`CC(C)(C)c1cccc(C(C)(C)C)c1O` [2,6-DTBP, 2,6-di-tert-butylphenol]: at HCN1 channels, the “potency … compared with propofol” value is on record as “more potent” and the “efficacy apparent” value is reported as “full”. Also, the “selectivity for HCN1 vs. HCN2-4” value in the data set with HCN1 vs. HCN2-4 is reported as “retains propofol's selectivity for HCN1 vs. HCN2-4”. Further, in data set [1], the “reversal of mechanical hypersensitivity” value was around 45% and the “reversal of thermal hypersensitivity” value was “complete reversal”. In addition, in data set [2], the “normal nociception (pin prick test)” value was “does not disrupt normal nociception”. Further, the “locomotor activity, motor coordination and muscle strength” value in data set [2] (open field, rotarod, horizontal wire) was “nor does it perturb”. In data set [3], the “mechanical and thermal hyperalgesia with respect to mechanical and thermal nociception” value is “Selectively Suppresses Mechanical and Thermal Hyperalgesia”. Also, in data set [3] (heat source intensity 15%), the “thermal hyperalgesia (HPWL)” value is “ameliorates thermal hyperalgesia”. Also, the “thermal nociception (HPWL)” value in data set [3] (heat source intensity 30%) is reported as “without overt effect”.
For `CC(C)c1cc(N)cc(C(C)C)c1O` [4-AP], the “HCN1 antagonism by 4-substituted 2,6-DIPPs” value at HCN1 channels was “effective”.
Same read-out and setting: the same measure for `CC(C)c1cc(C(C)(C)C)cc(C(C)C)c1O` [4-TBP]: “fully effective”; for `CC(C)c1cc([N+](C)(C)C)cc(C(C)C)c1O` [4-TMAP]: “ineffective”.
Regarding `CC(Cl)CCCCCCCCC(=O)c1cc(C(C)(C)C)c(O)c(C(C)(C)C)c1` (stereo not drawn) [BP4C-11:0:1], the “HCN1 antagonism of tethered, unanchored 2,6-DTBP” value at HCN1 channels (10 and 100 μM, applied from the outside) is 4-adduct tolerance is retained. Further, the “dispersion into an aqueous buffer” value in data set [4] is given as “reasonably easy to disperse”.
Take `CC(C)(C)c1cc(C(=O)CCCCCCCCC(O)CO)cc(C(C)(C)C)c1O` (stereo not drawn) [BP4L-10:0:1]: at HCN1 channels, the “inhibition of HCN1 channel gating” value was “largely ineffective”. The “dispersion into an aqueous buffer” value in data set [4] is given as “reasonably easy to disperse”.
As for `CC(C)(C)c1cc(C(=O)CCCCCCCC/C=C/CCCCCCC(O)CO)cc(C(C)(C)C)c1O` (stereo not drawn) [BP4L-18:1:1, (E)-1-(3,5-di-tert-butyl-4-hydroxyphenyl)-18,19-dihydroxynonadec-10-en-1-one], the “inhibition of HCN1 channel gating” value on HCN1 channels is “concentration-dependent; also recorded: effectively inhibits channel gating with a potency and efficacy indistinguishable from free 2,6-DT BP”. The “absorption / bioavailability from whole blood concentration” value in data set [5] is on record as “absorbed demonstrating bioavailability”.
As to `CCN(c1ccccc1)c1cc(=NC)n(C)c(C)n1.Cl` [ZD7288], in data set [6], the anti-hyperalgesia result is recorded as “significant anti-hyperalgesia”.
Take `COc1cc2c(cc1OC)CC(=O)N(CCCN(C)C[C@H]1Cc3cc(OC)c(OC)cc31)CC2` [ivabradine]: the anti-hyperalgesia entry in data set [6] is recorded as “significant anti-hyperalgesia”.
